# Laboratory results as given in patent US20080233191A1, “USE OF RANOLAZINE FOR ELEVATED BRAIN-TYPE NATRIURETIC PEPTIDE” (priority 2007, published 2008).
# System: patients with non-ST elevation ACS
# Assay: MERLIN-TIMI 36 trial: randomized, double-blind, placebo-controlled; effect of ranolazine stratified by baseline BNP
# Assay type: in vivo, human
# Details: ranolazine vs placebo
# From the text: Ranolazine is believed to exert anti-ischemic effects through a reduction in myocardial cellular sodium and calcium overload with a consequent reduction in wall stress. B-type natriuretic peptide (BNP) is released in response to increased wall stress and is a potent indicator of risk in acute coronary syndromes (ACS). This study was a prospective evaluation of the interaction between BNP and the effect of ranolazine as part of a randomized, double-blind, placebo-controlled trial.
# Plasma BNP were measured (ADVIA® BNP) at baseline (N=4543), 14 days (N=4079), and the Final Visit (N=3328) of the patients with non-ST elevation ACS randomized to ranolazine or placebo in the MERLIN-TIMI 36 trial. Patients were stratified using BNP>80 pg/mL based upon prior work with this assay. The primary endpoint of the trial was a composite of cardiovascular death, myocardial infarction, or recurrent ischemia (CVD/Ml/Rl).
compound,measurement,setting,value
"COc1ccccc1OCC(O)CN1CCN(CC(=O)Nc2c(C)cccc2C)CC1 (racemic) [ranolazine, (±)-N-(2,6-dimethylphenyl)-4-[2-hydroxy-3-(2-methoxyphenoxy)propyl]-1-piperazine-acetamide]","endpoint component of worsening angina, HR","BNP>80 pg/mL, CI 0.35-0.84, p=0.005",0.55
same,"endpoint component of worsening angina, HR","BNP≦80 pg/mL, 95% CI 0.63-1.28, p=0.55",0.90
same,"primary endpoint (composite of cardiovascular death, myocardial infarction, or recurrent ischemia), HR","patients with BNP>80 pg/mL, 95% CI 0.66-0.94, p=0.009",0.79
same,"primary endpoint (composite of cardiovascular death, myocardial infarction, or recurrent ischemia), effect","patients with a negative BNP result, p-interaction=0.052",lack of detectable effect
